Measurements reported in ChEMBL document CHEMBL5226390, “Synthesis and Structure-Activity Analysis of Icaritin Derivatives as Potential Tumor Growth Inhibitors of Hepatocellular Carcinoma Cells” (J Nat Prod, 2023).

Experiments:
[1] = Solubility of the compound in water incubated for 24 hrs under stirring conditions by HPLC analysis; format: physicochemical
SMMC-7721 = assay: Antiproliferative activity against human SMMC-7721 cells assessed as reduction in cell viability incubated for 48 hrs by MTT assay; format: functional, cell-based; details: Homo sapiens, SMMC-7721, 48 h; read-out: IC50
Hep 3B2 = assay: Antiproliferative activity against human Hep3B cells assessed as reduction in cell viability incubated for 48 hrs by MTT assay; format: functional, cell-based
HepG2 = assay: Antiproliferative activity against human HepG2 cells assessed as reduction in cell viability incubated for 48 hrs by MTT assay; format: functional, cell-based; details: HepG2, 48 h

| solubility at 24 h [1] [µg/mL] | IC50 (SMMC-7721) [µM] | IC50 (HepG2) [µM] | Structure (SMILES) | IC50 (Hep 3B2) [µM] |
| --- | --- | --- | --- | --- |
| < 10 | > 10 | > 10 | COc1ccc(-c2oc3c(CC=C(C)C)c(O)cc(O)c3c(=O)c2O)cc1 [ICARITIN] | 0.9 |
| – | > 10 | > 10 | COc1ccc(-c2oc3c(CC=C(C)C)c(OCCCCCC(=O)NO)cc(O)c3c(=O)c2O[C@H]2O[C@H](C)[C@@H](O)[C@H](O)[C@@H]2O)cc1 | > 10 |
| – | 6.5 | 2.5 | CCN(CC)CCCCCCOc1cc(O)c2c(=O)c(O[C@H]3O[C@H](C)[C@@H](O)[C@H](O)[C@@H]3O)c(-c3ccc(OC)cc3)oc2c1CC=C(C)C | 8.9 |
